Legend:
Marburg Ci67 = assay type: cell-based, Marburg virus
Ebola Zaire Virus = assay type: cell-based, Ebola virus (strain Zaire)
[1] = mouse, in vivo
Marburg Ravn = system: Marburg Ravn; design: species or system Balb/c mice; details: mouse, in vivo
[2] = mouse
Ebola Zaire = system: Ebola Zaire; design: species or system C57Bl/6 mice; details: mouse, in vivo
[3] = system: Ebola virus (strain Zaire); design: species or system Balb/c mice; details: mouse, in vivo

Compound	IC50 (Marburg Ci67) [µM]	IC50 (Ebola Zaire Virus) [µM]	weight loss compared to vehicle only control [1]	protection against Marburg virus (survival) (Marburg Ravn)	reversibility of symptoms after end of treatment [1]	weight loss [1]	weight loss or adverse effects in vivo [2]	protection against Ebola virus (survival) (Ebola Zaire)	survival rate [3] [%]
CCCOCCCCCCN1C[C@H](O)[C@@H](O)[C@H](O)[C@H]1CO [Compound N7-O-DNJ, N-(7-Oxadecyl)deoxynojirimycin]	50	20	–	–	–	–	–	–	–
COCCCCCCCCCN1C[C@H](O)[C@@H](O)[C@H](O)[C@H]1CO [Compound N9-DNJ, N-(9-Methoxynonyl) deoxynojirimycin]	32	16	did not show any significant signs of weight loss	–	–	–	–	–	–
[N-]=[N+]=Nc1ccc(NCCCCCCN2C[C@H](O)[C@@H](O)[C@H](O)[C@H]2CO)c([N+](=O)[O-])c1 [NAP-DNJ, N—(N-{4′-azido-2′-nitrophenyl}-6-aminohexyl)deoxynojirimycin]	6	6	did not show any significant signs of weight loss	protection	symptoms promptly ceased when treatment was done	did not show signs of weight loss	no weight loss or adverse effects observed	significant protection	71
CCCCN1C[C@H](O)[C@@H](O)[C@H](O)[C@H]1CO [NB-DNJ, N-Butyl deoxynojirimycin]	–	32	did not show any significant signs of weight loss	–	–	–	–	–	–
CCCCCCCCCN1C[C@H](O)[C@@H](O)[C@H](O)[C@H]1CO [NN-DNJ, N-Nonyl deoxynojirimycin]	–	12	–	–	–	–	–	–	–

From patent publication US20110065754A1 (priority 2009, published 2011)
